Data reported in patent US20140357512A1, “HISTONE DEACETYLASE (HDAC) BIOMARKERS IN MULTIPLE MYELOMA” (priority 2013, published 2014).

Tested on: human myeloma cell line MM.1S
Assay: SILAC acetylated-lysine peptide profiling, HDAC inhibitor vs DMSO (light/heavy ratio)
Assay type: cell-based
Description: An embodiment of the invention comprises utilizing the SILAC method in order to quantitate changes in protein expression between two or more populations of cells. The SILAC method is a technique based on mass spectrometry that detects differences in protein abundance among samples using non-radioactive isotopic labeling. The SILAC method is known in the art, and described in detail in Ong et al., “Stable Isotope Labeling by Amino Acids in Cell Culture, SILAC, as a Simple and Accurate Approach to Expression Proteomics”, Molecular & Cellular Proteomics, vol. 1, pp. 376-386 (2002), which is incorporated herein by reference in its entirety.
Briefly, the SILAC method involves growing two populations of cells in cell culture. The first population of cells is grown in growth media containing normal amino acids (“normal media”). The second population of cells is grown in media lacking a standard essential amino acid (such as lysine), but is then supplemented with a non-radioactive, isotopically labeled form of that essential amino acid (such as lysine labeled with ^13C atoms, rather than normal ^12C atoms), which is called “heavy media”. When the two populations of cells are each growing in the medium, they incorporate the amino acids into all of their proteins. The growth of cells maintained in the heavy media is no different from that in normal media. All peptides containing the heavy amino acids are heavier than their normal counterparts. The cells from each of the two populations of cells are lysed. The lysates from each of the two cell populations are then combined. The combined cell lysates are then analyzed by mass spectrometry. Pairs of chemically identical peptides of different stable isotope composition can be differentiated in a mass spectrometer due to their difference in mass. The ratio of peak intensities in the mass spectrum for such peptide pairs reflects the abundance ratio for the two proteins.
This example describes SILAC studies that were performed to compare the effects of three different HDAC inhibitors (Compound A, Compound B, and tubastatin A) to a control on a human multiple myeloma cell line. The HDAC inhibitors were also compared amongst themselves to determine differences in their effects.
A human myeloma cell line MM.1S was grown using either ^12C (light) or ^13C (heavy) lysine containing culture medium. The “heavy” cells were treated with DMSO as the control, and the “light” cells were treated with a single HDAC inhibitor at 37° C. for 6 hours. The heavy and light cells were lysed, and the lysates were mixed in 1:1 ratio and digested with the protease trypsin. The acetylated lysine containing peptides (due to the action of the HDAC inhibitor) in the digested peptide pool were captured by a non-specific anti-acetylated lysine antibody cocktail (the antibodies identify both light and heavy acetylated peptides), and subjected to mass spectrometry analysis in order to identify thousands of individual peptides.
Thousands of peptides were identified in pairs (^12C and ^13C) due to their known mass differences. The amino acid sequence and quantitative ratio (Light/Heavy) of a given peptide in two differentially treated cell lysates were then determined and annotated with their possible protein (gene) sources.
As stated above, three HDAC inhibitors (Compound A, Compound B, and Tubastatin A) were used. Thus, the SILAC method was performed three times, with a different HDAC inhibitor compared to a control each time. Accordingly, there are three pairs of quantitative data in the table below, i.e., Compound A:DMSO, Compound B:DMSO, and Tubastatin A:DMSO. A cut-off of 1.30 fold of change (increase or decrease) was then used to determine “changed” or “+” in the table, and any peptides with a fold of change less than 1.3 fold were determined to be “unchanged” or “0” in the table. Those peptides that were not identified were marked as “NA” in the table. […]

O=C(CCCCCCNC(=O)c1cnc(N(c2ccccc2)c2ccccc2)nc1)NO [Compound A, 2-(diphenylamino)-N-(7-(hydroxyamino)-7-oxoheptyl)pyrimidine-5-carboxamide]
light to heavy ratio (L/H ratio) of acetylated peptide EIAENALGK(ac)HK (SEQ ID NO: 617) (Isoform 1 of Heterogeneous nuclear ribonucleoprotein H3 [76], gene HNRNPH3, inhibitor:DMSO): 0.47 log 2
light to heavy ratio (L/H ratio) of acetylated peptide DVSYQGGK(ac)SIK (SEQ ID NO: 571) (Isoform 1 of Histone-lysine N-methyltransferase MLL3 [758], gene MLL3, inhibitor:DMSO): 0.42 log 2
light to heavy ratio (L/H ratio) of acetylated peptide TLVLSDK(ac)HSPQK (SEQ ID NO: 523) (Isoform 1 of Histone-lysine N-methyltransferase MLL3 [2809], gene MLL3, inhibitor:DMSO): −0.46 log 2
light to heavy ratio (L/H ratio) of acetylated peptide VK(ac)NELFK (SEQ ID NO: 565) (Isoform 1 of Hydroxyacyl-coenzyme A dehydrogenase mitochondrial [127], gene HADH, inhibitor:DMSO): 0.41 log 2
light to heavy ratio (L/H ratio) of acetylated peptide LVAENK(ac)FGK (SEQ ID NO: 296) (Isoform 1 of Hydroxyacyl-coenzyme A dehydrogenase mitochondrial [301], HADH, drug:DMSO): 0.74 log 2
light to heavy ratio (L/H ratio) of acetylated peptide K(ac)[…] (SEQ ID NO: 316) (Isoform 1 of L-lactate dehydrogenase A chain [318], LDHA, drug:DMSO): 1.00 log 2
light to heavy ratio (L/H ratio) of acetylated peptide INK(ac)ALDK (SEQ ID NO: 344) (Isoform 1 of Myosin-9 [435], MYH9, drug:DMSO): 0.00 log 2
light to heavy ratio (L/H ratio), log 2 scale, acetylated peptide INKALDK(ac)TK (SEQ ID NO: 802) (Isoform 1 of Myosin-9 [439], gene MYH9, drug:DMSO): 1.00
light to heavy ratio (L/H ratio) of acetylated peptide FYK(ac)[…] (SEQ ID NO: 596) (Isoform 1 of N-alpha-acetyltransferase 50 NatE catalytic subunit [37], gene NAA50, inhibitor:DMSO): 0.45 log 2
light to heavy ratio (L/H ratio), log 2 scale, acetylated peptide VYFK(ac)DTHPK (SEQ ID NO: 758) (Isoform 1 of NADH-cytochrome b5 reductase 3 [115], gene CYB5R3, drug:DMSO): 0.90
light to heavy ratio (L/H ratio), log 2 scale, acetylated peptide […](ac)SK (SEQ ID NO: 767) (Isoform 1 of Peripherin [288], gene PRPH, drug:DMSO): 0.94
light to heavy ratio (L/H ratio) of acetylated peptide K(ac)EYVFADSK (SEQ ID NO: 616) (Isoform 1 of Phosphatidylinositol-345-trisphosphate 5-phosphatase 1 [371], gene INPP5D, LOC646743, inhibitor:DMSO): 0.47 log 2
light to heavy ratio (L/H ratio) of acetylated peptide VK(ac)ILFNK (SEQ ID NO: 561) (Isoform 1 of Polypyrimidine tract-binding protein 1 [368], gene PTBP1, inhibitor:DMSO): 0.40 log 2
light to heavy ratio (L/H ratio) of acetylated peptide TACAINK(ac)VLMGR (SEQ ID NO: 584) (Isoform 1 of Protein FAM98A [297], gene FAM98A, inhibitor:DMSO): 0.43 log 2
light to heavy ratio (L/H ratio) of acetylated peptide LMK(ac)YLLEQLK (SEQ ID NO: 585) (Isoform 1 of Protein MB21D1 [414], gene MB21D1, inhibitor:DMSO): 0.43 log 2
light to heavy ratio (L/H ratio) of acetylated peptide VLSK(ac)[…] (SEQ ID NO: 294) (Isoform 1 of Protein SET [154], SET, drug:DMSO): 0.69 log 2
light to heavy ratio (L/H ratio) of acetylated peptide […](ac)ALK (SEQ ID NO: 349) (Isoform 1 of RNA-binding protein with serine-rich domain 1 [218], RNPS1, drug:DMSO): 0.00 log 2
light to heavy ratio (L/H ratio), log 2 scale, acetylated peptide […](ac)TDQAQDVK (SEQ ID NO: 765) (Isoform 1 of Signal recognition particle 9 kDa protein [52], gene SRP9, drug:DMSO): 0.93
light to heavy ratio (L/H ratio), log 2 scale, acetylated peptide AMMEK(ac)LVK(ac)SISQLK (SEQ ID NO: 814) (Isoform 1 of Signal transducer and activator of transcription 2 [158:161], gene STAT2, drug:DMSO): 1.00
light to heavy ratio (L/H ratio) of acetylated peptide DMCLEK(ac)DTLGLFLR (SEQ ID NO: 530) (Isoform 1 of U5 small nuclear ribonucleoprotein 200 kDa helicase [745], gene SNRNP200, inhibitor:DMSO): −0.41 log 2
light to heavy ratio (L/H ratio) of acetylated peptide LEMSYSK(ac)FK (SEQ ID NO: 304) (Isoform 1 of UDP-N-acetylglucosamine--dolichyl-phosphate N-acetylglucosaminephosphotransferase [320], DPAGT1, drug:DMSO): 1.00 log 2
light to heavy ratio (L/H ratio) of acetylated peptide PK(ac)PLLFK (SEQ ID NO: 544) (Isoform 1 of UDP-glucose:glycoprotein glucosyltransferase 1 [176], gene UGGT1, inhibitor:DMSO): 0.39 log 2
light to heavy ratio (L/H ratio) of acetylated peptide TMSCSDK(ac)ILR (SEQ ID NO: 323) (Isoform 2 of Double-stranded RNA-specific adenosine deaminase [1013], ADAR, drug:DMSO): 0.00 log 2
light to heavy ratio (L/H ratio) of acetylated peptide […](ac)[…] (SEQ ID NO: 336) (Isoform 2 of Fibronectin type-III domain-containing protein 3A [507], FNDC3A, drug:DMSO): 0.00 log 2
light to heavy ratio (L/H ratio), log 2 scale, acetylated peptide FYEQFSK(ac)NIK (SEQ ID NO: 799) (Isoform 2 of Heat shock protein HSP 90-alpha [565], gene HSP90AA1, drug:DMSO): 1.00
light to heavy ratio (L/H ratio) of acetylated peptide SK(ac)GK(ac)NSDEEAPK (SEQ ID NO: 615) (Isoform 2 of Inhibitor of growth protein 4 [145:147], gene ING4, inhibitor:DMSO): 0.47 log 2
light to heavy ratio (L/H ratio) of acetylated peptide LSFISVGNK(ac)FK (SEQ ID NO: 521) (Isoform 2 of Myosin-VI [646], gene MYO6, inhibitor:DMSO): −0.49 log 2
light to heavy ratio (L/H ratio) of acetylated peptide AEK(ac)[…] (SEQ ID NO: 503) (Isoform 2 of Neutral alpha-glucosidase AB [242], gene GANAB, inhibitor:DMSO): −0.71 log 2
light to heavy ratio (L/H ratio) of acetylated peptide GAK(ac)PVVVLQK (SEQ ID NO: 611) (Isoform 2 of Nipped-B-like protein [1000], gene NIPBL, inhibitor:DMSO): 0.47 log 2
light to heavy ratio (L/H ratio) of acetylated peptide LIAGNK(ac)[…] (SEQ ID NO: 512) (Isoform 2 of Nuclear factor related to kappa-B-binding protein [1262], gene NFRKB, inhibitor:DMSO): −0.58 log 2
light to heavy ratio (L/H ratio) of acetylated peptide […](ac)K (SEQ ID NO: 626) (Isoform 2 of Septin-7 [207], gene, inhibitor:DMSO): 0.49 log 2
light to heavy ratio (L/H ratio) of acetylated peptide YQQFK(ac)DFQR (SEQ ID NO: 258) (Isoform 2 of Spliceosome RNA helicase DDX39B [349], SNORD84, DDX39B, drug:DMSO): 0.39 log 2
light to heavy ratio (L/H ratio) of acetylated peptide GLCEK(ac)PLASAAAK (SEQ ID NO: 536) (Isoform 2 of Transportin-3 [513], gene TNPO3, inhibitor:DMSO): −0.39 log 2
light to heavy ratio (L/H ratio), log 2 scale, acetylated peptide LEPLK(ac)PLK (SEQ ID NO: 772) (Isoform 3 of Proline-rich protein 12 [1223], gene PRR12, drug:DMSO): 1.00
light to heavy ratio (L/H ratio), log 2 scale, acetylated peptide DQTK(ac)SIVEK (SEQ ID NO: 810) (Isoform 3 of Reticulon-3 [217], gene RTN3, drug:DMSO): 1.00
light to heavy ratio (L/H ratio) of acetylated peptide LAAFGQLHK(ac)[…] (SEQ ID NO: 570) (Isoform 5 of Interleukin enhancer-binding factor 3 [332], gene ILF3, inhibitor:DMSO): 0.41 log 2
